Experimental data as given in ChEMBL document CHEMBL5150017, “Mechanism of Action and Structure-Activity Relationship of α-Conotoxin Mr1.1 at the Human α9α10 Nicotinic Acetylcholine Receptor” (J Med Chem, 2022).
Active and inactive are the calls of the source. The calls are words filed in the database; no cut-off is given here.

Test system: Mus musculus
Assay: Analgesic activity in chronic constriction injury-induced mechanical pain mouse model assessed as increase in paw withdrawal latency at 60 mg/kg measured after 1 to 7 hrs
Assay type: functional, organism-based
Conditions: time 1-7 hrs

NCC1(CC(=O)O)CCCCC1
Activity: Active
